How the values were obtained:
[1] = tested on: HUP-T3 pancreatic cancer cells; test: Cellular proliferation of HUP-T3 pancreatic cancer cells in vitro; type: cell-based; conditions: treatment on day 1 for 5 h, measured after 7 days
Method: (§1) The aim of the study was to determine the effect of AP12009 (trabedersen) treatment in combination with 5-Fluorouracil (5-FU) on TGFβ2 secretion and on cellular proliferation of HUP-T3 pancreatic cancer cells and WiDr colon cancer cells in vitro.
(§2) 10 μM of AP12009 as monotherapy decreased cell proliferation (53% proliferation of untreated control) and TGFβ2 expression (42% of untreated control) in HUP-T3 cells.

TGFβ2 [2] = test: TGFβ2 secretion/expression in HUP-T3 pancreatic cancer cells; type: cell-based; conditions: ca.
Method: as §1, §2

WiDr colon cancer cells = test: Cellular proliferation of WiDr colon cancer cells in vitro; type: cell-based; conditions: treatment on day 1 for 5 h only, ca.
From the text: as §1

TGFβ2 [3] = test: TGFβ2 secretion/expression in WiDr colon cancer cells; type: cell-based; conditions: ca.
From the text: as §1

[4] = tested on: C8161 human melanoma cells; test: C8161 melanoma xenograft model: tumor growth and survival; conditions: for Tumor growth suppressed relative to control group 1: day 42
Method: Sixty female athymic nude mice were intradermally inoculated with C8161 human melanoma cells and randomized into six groups of 10 mice. Three groups received monotherapy treatment with either OT-101 (trabedersen) (16 mg/kg) (Group 2) or Dacarbazine (DTIC; 1 or 10 mg/kg; Groups 3, 4). Two groups received combination therapy with OT-101/DTIC at 16/1 mg/kg or 16/10 mg/kg (Groups 5 and 6). Vehicle (0.9% saline, Groups 1, 3, and 4) and OT-101 were administered 3 times/week via subcutaneous injection. Vehicle (0.9% saline, Groups 1 and 2) and DTIC (1 or 10 mg/kg) were administered via intraperitoneal injection four times/week. All OT-101/Trabedersen treatments commenced at day 0 of the study and all DTIC treatments commenced on day 14. Mice were monitored for adverse effects, body weight and tumor size three times weekly. The tumor, lungs, liver and kidneys were excised from all mice at termination and weighed.

`O=c1[nH]cc(F)c(=O)[nH]1` [5-FU, 5-Fluorouracil, reference compound] was tested, and the “5-FU concentrations that dose-dependently reduced cell proliferation” value [1] was greater than 10 µM, the “5-FU concentrations at which TGFβ2 was suppressed” value (TGFβ2 [2]) was greater than 75 µM and the “5-FU concentrations that concentration-dependently reduced cell proliferation” value (WiDr colon cancer cells) was greater than 38 µM. The “5-FU concentrations at which TGFβ2 was suppressed” value (TGFβ2 [3]) was greater than 75 µM.

With `CN(C)/N=N/c1[nH]cnc1C(N)=O` [DTIC, Dacarbazine] the “Tumor growth suppressed relative to control group 1” value ([4]; group 3: DTIC 1 mg/kg i.p. four times/week from day 14) was −2%, the “Tumor growth suppressed relative to control group 1” value ([4]; group 4: DTIC 10 mg/kg i.p. four times/week from day 14) was 78% and the median survival ([4]; group 3: DTIC 1 mg/kg) was 47 days. For the same compound, the median survival ([4]; group 4: DTIC 10 mg/kg) was 60 days.
